The series in a line: gradient 5% acetonitrile 3 min, to 50% in 2 min, to 85% in 15 min, held 3 min, 100 µL/min. To be noted: column: Zorbax Extend-C18 2.1 x 50 mm; eluents: water / acetonitrile, 0.1% formic acid. The method, boiled down:
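Using water and acetonitrile that each contained 0.1% formic acid, mixtures of ~100 pure standards were separated at 100 μL/min on a Zorbax Extend-C18 column (2.1 × 50 mm, 1.8 μm). The HPLC fed a quadrupole time-of-flight mass spectrometer working in positive and negative ionization mode, with dead and dwell volumes of 40 μL and 900 μL. Data were acquired over 3 months. Retention time was read from computationally picked adduct peaks after manual inspection of each.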
In turn, `CCc1nc2cc(-c3noc(/C=C/c4ccco4)n3)ccc2o1` showed an RP-LC retention time of 1090 s.

On to `O=C(Cc1ccccc1)NCc1nc(-c2cccc(-c3csc(C4CC4)n3)c2)no1`, for which the RP-LC retention time is 1070 s.

As for `Cc1ccc(N2C(=O)N3CCc4c([nH]c5ccccc45)C3(C)C2=O)cc1` (stereo unspecified), the RP-LC retention time worked out at 1020 s.

`Cc1ccc(CNC(=O)Cn2nc(C)c3nn(-c4ccccc4)c(-n4cccc4)c3c2=O)o1` came in with an RP-LC retention time of 946 s.

On to `Cc1ccc(NC(=O)C2CCN(S(=O)(=O)c3ccc4c(c3)sc(=O)n4C(C)C)CC2)cc1F`, for which the RP-LC retention time stood at 1050 s.

In turn, `CC(=O)N1CCc2[nH]c3ccc(C(=O)NCc4ccc(N5CCCC5)cc4)cc3c2C1` came in with an RP-LC retention time of 1120 s.

On to `CCCNC(=O)CC1CCN(C(=O)c2[nH]c(C)c(C(=O)OCC)c2C)CC1`, for which the RP-LC retention time was 683 s.

`CCOc1ccc(NC(=O)CSC2CCCCC2)cc1` displayed an RP-LC retention time of 975 s.

`O=C(NC1CCN(c2cc(-c3cccs3)[nH]n2)C1)c1ccc(F)cc1F` (stereo unspecified) returned an RP-LC retention time of 718 s.

Consider `COC(=O)c1cc2c(=O)n(-c3cccc(C(F)(F)F)c3)ccc2nc1C`, for which the RP-LC retention time came out at 917 s.

Take `CCOc1ccccc1-c1noc(Cn2c(=O)n(CCCOC)c(=O)c3ccccc32)n1`: the RP-LC retention time amounted to 1060 s.

Consider `CCc1noc(-c2cccnc2N2CCCN(Cc3cc(F)cc(F)c3)CC2)n1`, for which the RP-LC retention time worked out at 673 s.

`CCN1C(=O)c2cc(S(=O)(=O)Nc3ccc(C)c(C)c3)ccc2Oc2cccnc21` gave an RP-LC retention time of 986 s.

Take `Cc1nc(C(=O)Nc2ccc(F)cc2C)c(C)o1`: the RP-LC retention time is 889 s.

Take `Nc1nc(SCC(=O)c2ccc(-c3ccccc3)cc2)n[nH]1`: the RP-LC retention time was found to be 677 s.

For the compound `CCC(C(=O)N1CCN(c2cc(=O)n(C)c(=O)n2C)CC1)N1C(=O)COc2ccccc21` (stereo unspecified), the RP-LC retention time came out at 702 s.

With `O=C(NCc1ccccc1)C1CCc2nc(N3CCN(C(=O)C4CCC4)CC3)sc2C1` (stereo unspecified), the RP-LC retention time stood at 578 s.

On to `O=C(c1cn(-c2cc(-c3nc(C4CC4)no3)ccn2)cn1)N1CCCCCC1`, for which the RP-LC retention time worked out at 883 s.

Compound `CCOc1cc(CNC(=O)C2CCCN(C(=O)c3cc(C)cc(C)c3)C2)cc(OCC)c1OCC` (stereo unspecified) gave an RP-LC retention time of 968 s.

As for `COc1ccc(-c2noc(C3CCCN(S(=O)(=O)c4ccc(C)cc4)C3)n2)cc1OC` (stereo unspecified), the RP-LC retention time turned out to be 993 s.

Regarding `CCOC(=O)c1ccccc1NC(=O)Cn1c(=O)n(-c2ccc(F)cc2)c(=O)c2c1cc(C)n2C`, the RP-LC retention time came out at 1010 s.

For the compound `CC(C)Cc1ccc(S(=O)(=O)N2CCC3(CC2)NCCN=C3NCc2ccccc2)cc1`, the RP-LC retention time was found to be 856 s.

For `CN1CCN(CCNC(=O)CC2CCN(C(=O)c3cc4cc(Cl)ccc4[nH]3)CC2)CC1`, the RP-LC retention time is 618 s.

`CN1CCN(CCCNC(=O)CN2C(=O)C3CCCCN3c3ccc(C(=O)N(C)C)cc32)CC1` (stereo unspecified): the RP-LC retention time was found to be 572 s.

The compound `CC1CCN(CCNC(=O)c2nnc(-c3ccc(S(=O)(=O)N4CCCCC4)cc3)o2)CC1` came in with an RP-LC retention time of 663 s.

In turn, `COc1ccc(-c2nc3cnccn3c2Nc2ccc(C)c(Cl)c2)cc1OC` had an RP-LC retention time of 878 s.

With `Cc1oc(C2CCN(S(=O)(=O)c3cc(F)ccc3F)CC2)nc1C(=O)N(C)C`, the RP-LC retention time worked out at 816 s.

Take `COC(=O)c1cc(S(=O)(=O)N2CCCC2C(=O)Nc2ccc(C)cc2C)cn1C` (stereo unspecified): the RP-LC retention time is 915 s.

As to `CCOC(=O)c1ccc(NC(=O)C2CCCN(c3nnc4c(Cl)cccn34)C2)cc1` (stereo unspecified), the RP-LC retention time was found to be 802 s.

Turning to `COC(=O)c1cnc(N2CCN(c3cccc(C)c3)C(C)C2)c2ccccc12` (stereo unspecified), the RP-LC retention time was 1040 s.

For `O=C1CN(Cc2ccc3c(c2)OCO3)C2CS(=O)(=O)CC2N1c1cccc(Cl)c1` (stereo unspecified), the RP-LC retention time was 770 s.

For the origin of these results see the METLIN SMRT retention time set (Domingo-Almenara et al. 2019).
